Measured values as given in publication PMC9969764 (ChemMedChem, 2021).

Assays:
RET kinase = RET kinase (Homo sapiens, UniProt P07949); test: RET kinase biochemical assay; conditions: read-out: RET (IC50), mean of at least n = 3
[1] = system: LC-2/ad cells (RET-CCDC6 fusion-driven NSCLC); test: Cell viability, RET-driven cell line; format: cell-based; conditions: read-out: LC-2/ad (EC50)
TRKA = TRKA (Homo sapiens, UniProt P04629); test: TRKA kinase biochemical assay; conditions: read-out: TRKA (IC50), mean of at least n = 3
Chain of TRKA (P04629 33-796): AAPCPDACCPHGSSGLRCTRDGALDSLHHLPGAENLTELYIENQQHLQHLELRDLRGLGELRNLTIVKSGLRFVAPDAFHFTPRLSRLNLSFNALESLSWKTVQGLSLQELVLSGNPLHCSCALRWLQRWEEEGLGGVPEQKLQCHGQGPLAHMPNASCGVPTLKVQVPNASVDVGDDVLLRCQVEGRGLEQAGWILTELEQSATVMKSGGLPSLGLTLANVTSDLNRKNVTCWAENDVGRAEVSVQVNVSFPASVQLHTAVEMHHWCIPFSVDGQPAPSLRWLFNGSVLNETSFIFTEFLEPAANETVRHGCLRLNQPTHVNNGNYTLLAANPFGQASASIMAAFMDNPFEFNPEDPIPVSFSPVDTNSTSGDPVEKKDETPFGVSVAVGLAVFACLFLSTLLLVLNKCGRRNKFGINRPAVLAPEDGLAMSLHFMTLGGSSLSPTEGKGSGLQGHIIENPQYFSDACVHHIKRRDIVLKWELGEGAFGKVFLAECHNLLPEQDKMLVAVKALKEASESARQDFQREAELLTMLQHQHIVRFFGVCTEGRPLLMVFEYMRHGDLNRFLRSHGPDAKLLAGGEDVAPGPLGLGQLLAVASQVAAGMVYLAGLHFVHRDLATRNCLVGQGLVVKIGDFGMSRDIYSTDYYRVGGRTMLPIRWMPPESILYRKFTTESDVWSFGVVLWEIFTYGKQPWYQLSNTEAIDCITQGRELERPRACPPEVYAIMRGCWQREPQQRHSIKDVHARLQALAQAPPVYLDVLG

KM-12 cells = test: Cell viability, TRKA-driven matched control; format: cell-based; conditions: read-out: KM-12 (EC50)
A549 cells = test: Cell viability, cytotoxic control; format: cell-based; conditions: read-out: A549 (EC50)

Chain of RET kinase (P07949 29-1114): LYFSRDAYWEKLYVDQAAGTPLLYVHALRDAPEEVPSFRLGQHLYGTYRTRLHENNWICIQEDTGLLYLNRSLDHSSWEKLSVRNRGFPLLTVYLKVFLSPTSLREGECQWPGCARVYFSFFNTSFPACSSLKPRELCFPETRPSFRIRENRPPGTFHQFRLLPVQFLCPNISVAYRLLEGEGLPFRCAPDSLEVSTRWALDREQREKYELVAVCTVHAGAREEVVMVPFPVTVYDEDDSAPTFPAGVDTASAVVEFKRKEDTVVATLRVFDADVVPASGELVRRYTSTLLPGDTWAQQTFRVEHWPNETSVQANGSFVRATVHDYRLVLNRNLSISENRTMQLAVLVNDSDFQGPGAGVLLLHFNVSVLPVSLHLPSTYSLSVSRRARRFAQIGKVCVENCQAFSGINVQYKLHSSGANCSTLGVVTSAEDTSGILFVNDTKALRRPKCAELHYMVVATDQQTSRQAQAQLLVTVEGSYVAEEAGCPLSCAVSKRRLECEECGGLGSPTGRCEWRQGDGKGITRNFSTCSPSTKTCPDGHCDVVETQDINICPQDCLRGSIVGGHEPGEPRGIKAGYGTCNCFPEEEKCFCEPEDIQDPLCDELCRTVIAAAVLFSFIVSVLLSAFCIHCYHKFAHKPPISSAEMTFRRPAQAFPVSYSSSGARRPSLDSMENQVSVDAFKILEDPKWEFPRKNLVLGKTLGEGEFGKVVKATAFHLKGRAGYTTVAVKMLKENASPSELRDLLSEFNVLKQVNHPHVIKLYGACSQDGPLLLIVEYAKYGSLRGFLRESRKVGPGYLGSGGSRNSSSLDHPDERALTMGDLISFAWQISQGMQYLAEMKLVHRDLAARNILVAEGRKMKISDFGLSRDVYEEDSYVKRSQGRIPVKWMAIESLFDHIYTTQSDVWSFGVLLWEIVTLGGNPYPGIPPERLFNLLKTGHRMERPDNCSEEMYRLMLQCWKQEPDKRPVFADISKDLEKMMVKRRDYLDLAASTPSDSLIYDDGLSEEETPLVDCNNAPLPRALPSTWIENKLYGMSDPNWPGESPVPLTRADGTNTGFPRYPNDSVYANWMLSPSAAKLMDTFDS

| IC50 (RET kinase) [µM] | IC50 (TRKA) [µM] | SMILES | EC50 [1] [µM] | EC50 (KM-12 cells) [µM] | EC50 (A549 cells) [µM] |
| --- | --- | --- | --- | --- | --- |
| 6.82 ± 2.22 |  | Cn1nc(-c2ccccc2)c2c(N)ncnc21 [4a] |  |  |  |
| 9.2 | 57.1 | Nc1ncnc2[nH]ncc12 [fragment 1, pyrazoloadenine] | 1.47 | 1.73 | 3.02 |
